This is an account of results in patent US6667340B1, “Inhibitors of phosphatidyl myo-inositol cycle” (Arizona Board of Regents on behalf of the University of …, priority 1998, dated 2003).

“And” between values parts separate entries of the source, which are not always exact repeats. Equal values may be shown once. “Also recorded” adds a separate entry of the source. Read-outs that look alike come from different tables or passages of the source. Some results are limits rather than exact numbers.

Data set [1] has as its system HT-29 colon cancer cells. The experiment in a line: HT-29 colony formation in soft agarose. Type of data set: cell-based, human. The settings on record: for IC50: HT-29 colonies in soft agarose, 7 days exposure, mean of 3 determinations ± S.E.
Protocol: Specifically, anti-tumor activity was assessed by growing HT-29 colon cancer cells colonies in soft agarose which were then exposed to compounds according to the invention for 7 days and the colonies then counted.
The next data set has as its system bovine PI-PLC. The experiment in a line: In vitro inhibition of bovine PI-PLC. The format is biochemical.
Another data set addresses PI-3kinase. To be noted: previously found; cited from earlier work.
For data set [2], the system named is HT-29 colon cancer cells. To be noted: as reported earlier (J. Med. Chem. 1995; U.S. Pat. No. 5,227,508); read-out: IC50 for inhibition of colony formation by HT-29 human colon carcinoma cells; cited from earlier work.
Data set [3] can be described thus: Preliminary toxicology in BALB/C mice. The settings on record: for Weight Change %: killed 24 hr after last dose. The format is in vivo, male BALB/C mice. The protocol:
In order to evaluate clinical safety, toxicity tests were conducted by administering DPI or OMDPI to groups of 4 male BALB/C mice daily by i.p. injection for 5 days at the maximum tolerated dose. […] Moreover, there was a 33% decrease in total white blood cell count. It should be noted, however, that this is not sufficient for a cytotoxic drug to be considered myelosuppresive.
As discussed, Table 4 contains the toxicity results obtained with groups of 4 male BALB/C mice, which were administered the compounds daily by i.p. injection for 5 days at the doses shown and killed 24 hr after the last dose. Values are mean±S.E. The p values are shown only where there was a significant difference to control.

The subject of another data set is HT-29 human colon cancer. The experiment in a line: Anti-tumor activity against established HT-29 human colon cancer in SCID mice. To be noted: for T/C % / Tumor volume on day 10: qd 4-7; for Tumor volume on day 10: mean of 8 mice with S.E.
For data set [4], the system named is MCF-7 human breast cancer xenografts. Put plainly: in vivo. Type of data set: in vivo. The settings on record: for T/C: p<0.05. An excerpt:
(§1) Also, the relative ability of D-3-deoxy-PtdIns and OMDPI, when administered i.p. as a daily micellar suspension to inhibit the growth of MCF-7 human breast cancer xenografts in SCID mice, was further evaluated. […] […]. These were the maximum tolerated doses that could be given by these schedules. […].

In another data set the target is human Akt (Homo sapiens, UniProt P31749). The experiment in a line: Inhibition of PDGF-stimulated Akt activation in transfected NIH 3T3 cells. To be noted: 6 hours exposure, listed as D-3-deoxy-PtdIns. Type of data set: cell-based.
Chain of human Akt (P31749 whole entry): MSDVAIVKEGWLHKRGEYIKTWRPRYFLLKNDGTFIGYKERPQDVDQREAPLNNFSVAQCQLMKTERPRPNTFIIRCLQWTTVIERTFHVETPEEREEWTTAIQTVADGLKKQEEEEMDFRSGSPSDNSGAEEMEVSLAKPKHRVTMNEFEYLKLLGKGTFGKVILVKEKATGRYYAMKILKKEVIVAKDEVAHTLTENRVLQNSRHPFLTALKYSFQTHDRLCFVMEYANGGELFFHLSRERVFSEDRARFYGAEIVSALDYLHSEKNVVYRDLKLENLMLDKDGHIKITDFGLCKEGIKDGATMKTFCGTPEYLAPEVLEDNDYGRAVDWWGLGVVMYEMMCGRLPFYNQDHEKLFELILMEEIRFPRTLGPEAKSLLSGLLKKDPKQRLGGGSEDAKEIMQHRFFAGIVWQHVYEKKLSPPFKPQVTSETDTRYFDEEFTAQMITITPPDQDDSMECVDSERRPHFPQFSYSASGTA
Data set [5] deals with T1, bovine brain p110/p85 PI-3-kinase (Bos taurus, UniProt P32871).
T1 construct: from tissue; host or cells: bovine brain
T1 sequence (P32871 whole entry): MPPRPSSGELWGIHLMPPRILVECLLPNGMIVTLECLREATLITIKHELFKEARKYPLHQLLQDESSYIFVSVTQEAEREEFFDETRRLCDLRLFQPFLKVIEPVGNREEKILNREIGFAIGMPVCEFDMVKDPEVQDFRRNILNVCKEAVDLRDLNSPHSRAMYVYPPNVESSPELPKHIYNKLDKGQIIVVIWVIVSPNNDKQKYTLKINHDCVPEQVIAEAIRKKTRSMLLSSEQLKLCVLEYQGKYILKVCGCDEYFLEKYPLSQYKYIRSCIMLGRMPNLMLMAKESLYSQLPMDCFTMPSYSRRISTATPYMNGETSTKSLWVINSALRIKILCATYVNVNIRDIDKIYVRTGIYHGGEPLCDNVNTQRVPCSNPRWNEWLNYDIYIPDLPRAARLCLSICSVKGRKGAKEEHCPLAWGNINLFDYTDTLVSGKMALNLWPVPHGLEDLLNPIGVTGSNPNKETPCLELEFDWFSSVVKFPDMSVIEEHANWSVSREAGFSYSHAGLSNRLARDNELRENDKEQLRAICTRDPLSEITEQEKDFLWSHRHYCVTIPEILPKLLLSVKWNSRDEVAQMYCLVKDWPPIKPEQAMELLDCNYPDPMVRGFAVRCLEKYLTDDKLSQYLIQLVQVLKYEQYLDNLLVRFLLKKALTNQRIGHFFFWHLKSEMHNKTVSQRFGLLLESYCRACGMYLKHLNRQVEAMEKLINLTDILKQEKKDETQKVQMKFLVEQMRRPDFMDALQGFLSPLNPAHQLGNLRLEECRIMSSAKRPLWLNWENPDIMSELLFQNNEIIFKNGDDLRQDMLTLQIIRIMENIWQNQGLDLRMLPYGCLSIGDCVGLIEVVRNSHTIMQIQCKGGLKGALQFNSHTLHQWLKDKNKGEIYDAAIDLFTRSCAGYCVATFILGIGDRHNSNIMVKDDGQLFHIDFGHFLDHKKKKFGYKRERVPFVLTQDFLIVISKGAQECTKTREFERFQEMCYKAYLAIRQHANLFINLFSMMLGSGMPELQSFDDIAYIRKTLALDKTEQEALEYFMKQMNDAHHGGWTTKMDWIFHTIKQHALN
T1 sequence (P23727 whole entry partner): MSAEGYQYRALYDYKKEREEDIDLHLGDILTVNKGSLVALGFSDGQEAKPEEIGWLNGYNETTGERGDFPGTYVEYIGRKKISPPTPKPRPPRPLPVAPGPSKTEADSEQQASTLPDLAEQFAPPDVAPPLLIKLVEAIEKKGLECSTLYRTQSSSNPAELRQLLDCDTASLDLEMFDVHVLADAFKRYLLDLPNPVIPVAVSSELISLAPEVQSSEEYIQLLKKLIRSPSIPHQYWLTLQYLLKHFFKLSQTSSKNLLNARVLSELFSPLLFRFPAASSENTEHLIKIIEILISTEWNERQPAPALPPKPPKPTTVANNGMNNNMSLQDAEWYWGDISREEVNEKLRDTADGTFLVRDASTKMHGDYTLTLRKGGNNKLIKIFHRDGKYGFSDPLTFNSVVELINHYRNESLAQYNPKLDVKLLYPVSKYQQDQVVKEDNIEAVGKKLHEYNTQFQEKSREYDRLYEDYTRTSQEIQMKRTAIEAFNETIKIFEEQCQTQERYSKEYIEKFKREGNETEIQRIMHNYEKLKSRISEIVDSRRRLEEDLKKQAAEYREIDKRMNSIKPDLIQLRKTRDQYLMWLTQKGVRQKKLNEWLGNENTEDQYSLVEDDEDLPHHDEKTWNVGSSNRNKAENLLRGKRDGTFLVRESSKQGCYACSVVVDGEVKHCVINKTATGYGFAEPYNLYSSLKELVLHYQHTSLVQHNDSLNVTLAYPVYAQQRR
Put plainly: In vitro inhibition of bovine brain p110/p85 PI-3-kinase. The format is biochemical. An excerpt:
Schultz et al.; Anticancer Res., 15:1135-1140 (1995)).

A short description of a further data set: Aqueous solubility. The settings on record: aqueous with cosolvent or surfactant or cyclodextrin; in 0.1% Tween 20, opalescent solution. Type of data set: physicochemical. From the text: Therefore, OMDPI should be readily formulated for intravenous use, should this be determined to be the optimal route for clinical administration.
The next data set can be described thus: in vivo. To be noted: SCID, mouse, in vivo, ip, read-out: maximum tolerated dose. The format is in vivo.
Text: as §1

For data set [6] the following is noted: administered orally as well as parenterally; cited from earlier work.
Setting [7] is: 300 mg/kg i.p. daily for 5 days.
The mark [8] stands for this setting: 100 mg/kg i.p. daily for 5 days.
[9] abbreviates: 100 mg/kg i.p. daily for 5 days, listed as OMDPI.
Setting [10] is: 100 mg/kg i.p. daily for 5 days, listed as deoxy-PtdIns Ether Lipid.
The mark [11] stands for this setting: maximum tolerated dose i.p. daily for 5 days.

Consider 2,3-dideoxy-PtdIns, for which, in the data set on HT-29 colon cancer cells [1], the concentration for half-maximal inhibition (IC50) amounted to 50 ± 7 µM.

Take “3-chloro-3-deoxy-PtdIns [reference compound]”: the “growth inhibition at maximum tested concentration” value in the data set on HT-29 colon cancer cells [1] (HT-29 colony formation) is reported as under 20%.

For the molecule `CCCCCCCCCCCCCCCCCCOC[C@H](COP(=O)(O)OC1C(O)C(O)C(O)C(O)C1O)OC` (some centres unmarked) [1-O-octadecyl-2-O-methyl-sn-glycero-3-phospho-myo-inositol], the “inhibition of cancer cell growth” value in the data set on HT-29 colon cancer cells [1] (in words) was “only a weak inhibitor”. Further, in the data set with bovine PI-PLC (same assay conditions as Table 2), the “PI-PLC IC50” value is reported as “poor inhibitor”. Moreover, the IC50 on PI-3kinase is 90 µM.

For the molecule `CCCCCCCCCCCCCCCC(=O)OCC(COP(=O)(O)OC1C(O)CC(O)C(O)C1O)OC(=O)CCCCCCCCCCCCCCC` (centres unmarked) [(30), 3-deoxy-phosphatidyl-myo-inositol, reference compound], it took 35 µM to reach half-maximal inhibition in the data set on HT-29 colon cancer cells [1] (IC50). Moreover, in the data set with bovine PI-PLC, the “PtdIns-PLC IC50” value is on record as “N/A (N/A = not active, with <20% inhibition at 100 gM.)”. Moreover, the IC50 in the data set with HT-29 colon cancer cells [2] was 35 µM. In data set [3] (setting [7]), the ALT is listed as 30.5, the BUN is 15.7, the “Platelets × 10^6” value is recorded as 0.9 × 10^6 and the “Total Protein” value stood at 4.6. Further, in data set [3] (setting [7]), the White blood cells was found to be 7.9 and the “Weight Change %” value was −4.3 ± 1.9%. Besides, in the data set with HT-29 human colon cancer (250 mg/kg i.p.), the T/C % was 111.1% and the “Tumor volume on day 10” value was 0.30 ± 0.06 cm^3. Besides, the lethality entry in the data set on HT-29 human colon cancer (500 mg/kg i.p., qd 4-5) is given as “lethal”. For the same molecule, the anti-tumor activity entry in the data set with HT-29 human colon cancer (half of 500 mg/kg daily i.p.) was “no anti-tumor activity”. Also, in data set [4] (i.p. daily micellar suspension, dose not given), the T/C is reported as 62%. Moreover, on human Akt, the Akt activation result is reported as “blocks the activation of Akt; also recorded: blocked Akt activation”.

Regarding `CCCCCCCCCCCCCCCC(=O)OCC(COP(=O)(O)OC1C(O)C(O)C(O)C(F)C1O)OC(=O)CCCCCCCCCCCCCCC` (centres unmarked) [(35), 3-Fluoro-3-deoxy-PtdIns, reference compound], the 50% inhibitory concentration (IC50) in the data set on HT-29 colon cancer cells [1] and in the data set with HT-29 colon cancer cells [2] was 37 µM throughout.

For `CCCCCCCCCCCCCCCC(=O)OCC(CCP(=O)(O)OC1C(O)CC(O)C(O)C1O)OC(=O)CCCCCCCCCCCCCCC` [(50), 1-O-[(3S)-3,4-bis(palmitoyloxy)butylphosphonyl]-1D-3-deoxy-myo-inositol], in the data set on HT-29 colon cancer cells [1] (HT-29 colony formation, versus (30)), the “fold increase in growth inhibitory activity compared to DPI” value is > 3 fold and ~3 fold. The molecule further showed an IC50 in the data set with HT-29 colon cancer cells [1] (Homo sapiens, 168 h) of 10 µM. Further, the “PtdIns-PLC IC50” value with bovine PI-PLC is “N/A (N/A = not active, with <20% inhibition at 100 gM.)”. In addition, the “PI-3-K IC50” value in data set [5] was “N/A (N/A = not active, with <20% inhibition at 100 gM.)”.

For `CCCCCCCCCCCCCCCCCCOCC(COP(=O)(O)OC1C(O)CC(O)C(O)C1O)OC` (centres unmarked) [(60), 1-O-(2-O-methyl-1-O-octadecyl-sn-glycero-3-phospho)-1D-3-deoxy-myo-inositol], in the data set on HT-29 colon cancer cells [1] (listed as OMDPI (60)), the half-inhibitory concentration (IC50) was 2.1 ± 0.1 µM. Besides, in the data set with HT-29 colon cancer cells [1] (Homo sapiens, HT-29, 168 h), inhibition was half-maximal at 2 µM (IC50). Also, the solubility in “Aqueous solubility” is at least 10000 µg/mL. Further, in data set [3] (setting [8]), the ALT is reported as 32.7, the BUN is 18.7, the “Total Protein” value is reported as 4.9 and the White blood cells amounted to 5.8. Moreover, in data set [3] (setting [9]), the “Weight Change %” value was “no effect” and the “Platelets × 10^6” value is “no effect”. Further, in data set [3] (setting [10]), the “Weight Change %” value is “+2.3 ± 1.5%” and the “Platelets × 10^6” value is 0.9 × 10^6. Besides, in data set [3] (in words), the “liver, renal toxicity” value is reported as “not liver or renal toxic” and the myelosuppression result is on record as “only weakly myelosuppresive”. Moreover, in [3] (setting [11]), the “decrease in total white blood cell count” value is recorded as 33% and the “serum liver or kidney enzymes” value is reported as “did not result in elevation”. Also, in the data set on HT-29 human colon cancer (50 mg/kg i.p.), the T/C % came to 103.7% and the “Tumor volume on day 10” value amounted to 0.258 ± 0.05 cm^3. Moreover, in the data set with HT-29 human colon cancer (100 mg/kg i.p.), the T/C % is given as 118.0% and the “Tumor volume on day 10” value amounted to 0.32 ± 0.09 cm^3. For the same molecule, in the data set with HT-29 human colon cancer (150 mg/kg i.p.), the T/C % was found to be 33.3% and the “Tumor volume on day 10” value came to 0.09 ± 0.07 cm^3. The “toxicity at the highest dose tested” value in the data set with HT-29 human colon cancer (150 mg/kg per day i.p.) is on record as “not toxic”. For the same molecule, the “inhibition of tumor growth” value in the data set on HT-29 human colon cancer (150 mg/kg per day, 4 daily i.p. injections) worked out at 67%. In addition, in the data set on HT-29 human colon cancer (100 and 50 mg/kg per day i.p.), the anti-tumor activity entry was “did not elicit anti-tumor activity”. This molecule registered a T/C in data set [4] (75 mg/kg i.p. for 10 days) of 20%. The T/C in [4] (100 mg/kg i.p. for 5 days) was 39%. Moreover, the “inhibition of the growth of MCF-7 breast cancer” value in [4] (4 or 5 day daily i.p. schedule) turned out to be 60%. For the same molecule, in data set [4] (10 day schedule), the “inhibition of the growth of MCF-7 breast cancer xenografts” value was 80%. Also, the MTD at 5 days in the data set “in vivo” (daily i.p. for 5 days) came out at 100 mg/kg. In addition, the MTD at 10 days in the data set “in vivo” (daily i.p. for 10 days) worked out at 75 mg/kg.

In the case of `CCCCCCCCCCCCCCCCCCOCC(CCP(=O)(O)OC1C(O)CC(O)C(O)C1O)OC` [(90), 1-O-[(3S)-methoxy-4-(octadecyloxy)butylphosphonyl]-1D-3-deoxy-myo-inositol], the IC50 in the data set on HT-29 colon cancer cells [1] (Homo sapiens, 168 h) was 45 µM.

For `O=P1(N(CCCl)CCCl)NCCCO1` (centres unmarked) [cyclophosphamide, reference compound], in data set [4] (265 mg/kg on day 5, positive control), the “inhibition of the growth of MCF-7 xenografts” value is recorded as 43%.

Turning to `CCCCCCCCCCCCCCCCOP(=O)([O-])OCC[N+](C)(C)C` [mitelfosine, hexadecylphosphocholine], the clinical anti-tumor activity entry in data set [6] is “have shown clinical anti-tumor activity”.
